Data from patent publication US10758513B2, “Modulators of mitochondrial protein import” (THE REGENTS OF THE UNIVERSITY OF CALIFORNIA, priority 2011, dated 2020).
Entries after “also recorded” stand apart in the source; their conditions may differ.

Columns and labels:
[1] = target: Erv2 (Saccharomyces cerevisiae, UniProt Q12284); assay: In vitro Erv2 activity, Amplex Red-HRP assay; assay type: biochemical, yeast
[2] = Stability of MitoBloCK-6 in screening buffer by LC-MS; assay type: physicochemical; conditions: pH 3.4, 6.5, 7.4; room temperature, 1 hour
Protocol: MitoBloCK-6 at a final concentration of 3 mM was incubated with screening buffer (30 mM Hepes, 100 mM NaCl, 1 mM EDTA) at pH 3.4, 6.5, and 7.4 in a reaction volume of 100 μl at room temperature for 1 hour. The sample was injected into the LC-MS and retention was monitored. As a control, 20 mM MitoBloCK-6 in 1% DMSO was also analyzed.
LC-MS experiments were carried out on a Waters Acquity UPLC connected to a Waters LCT-Premier XE Time of Flight Instrument controlled by MassLynx 4.1 software. The mass spectrometer was equipped with a Multi-Mode Source operated in the electrospray mode. Briefly, samples of MitoBloCK-6, ES-1, and ES-2 were separated using an Acquity BEH C18 1.7 um column (2.1×50 mm, Waters) and were eluted with a gradient of 0.5 mL/min water/acetonitrile with 2, 80, and 95% acetonitrile at 0.5, 2.5 and 3.5 min, respectively. Mass spectra were recorded from 80 to 2000 Daltons. All solvents were LC-MS/MS Grade and purchased from Fisher Scientific.

[3] = system: zebrafish embryos; assay: Zebrafish embryo development; assay type: in vivo
Protocol: Zebrafish used for o-dianisidine staining of red blood cells in DMSO and MitoBloCK-6 treated fish were albino lines generated from crosses of TL and TU fish. Line AB were injected with the ALR morpholino. Lines were maintained in a 14-hr light/10-hr dark cycle and mated for one hour to obtain synchronized embryonic development. […] Following treatment, embryos were imaged using a Leica MZ16F fluorescent stereoscope (TexasRed filter set) at 5× magnification. […] Embryos were allowed to mature to 2 dpf and then imaged like the MitoBloCK-6 treated embryos; embryos were imaged at day 2 because of concerns with morpholino dilution. Images were resized to 300 dpi without resampling using Adobe Photoshop software.

[4] = system: tim12-1 mutant mitochondria; assay: In vitro import of AAC into tim12-1 mutant mitochondria; assay type: biochemical, yeast
Protocol: (§1) Prior to import into purified mitochondria, ^35S-methionine and cysteine labeled proteins were generated with TNT Quick Coupled Transcription/Translation kits (Promega) and plasmids carrying the gene of interest. Transcription of genes was driven by either a T7 or SP6 promoter. Import reactions were conducted according to established methods. After frozen mitochondria aliquots were thawed and added to the import buffer at a final concentration of 100 μg/mL, drug or DMSO vehicle was added as indicated. A final vehicle concentration of 1% was used in all experiments. Following 15 minute incubation at 25° C., import reactions were initiated by the addition of […] of translation mix. Aliquots were removed at intervals during the reaction timecourse and import was terminated with either cold buffer, 25 μg/mL trypsin, or a combination of both. If trypsin was added to digest unimported precursor protein, soybean trypsin inhibitor (STI) was subsequently added in excess after 15 minute incubation on ice. After a final recovery of by centrifugation (8,000×g, 5 minutes), mitochondria were disrupted in Laemmli sample buffer. Imports of membrane proteins (AAC, PiC, Tom40, Tim22, and Tim23) included a carbonate extraction step to remove proteins that had not inserted into the membrane (Koehler C M, et al. (1998), Science 279:369-373). […]

[5] = system: tim10-1 tim9S mitochondria; assay: In vitro import of radiolabeled precursors into tim10-1 tim9S mitochondria; assay type: biochemical, yeast
Protocol: Prior to import into purified mitochondria, ^35S-methionine and cysteine labeled proteins were generated with TNT Quick Coupled Transcription/Translation kits (Promega) and plasmids carrying the gene of interest. Transcription of genes was driven by either a T7 or SP6 promoter. Import reactions were conducted according to established methods. After frozen mitochondria aliquots were thawed and added to the import buffer at a final concentration of 100 μg/mL, drug or DMSO vehicle was added as indicated. A final vehicle concentration of 1% was used in all experiments. Following 15 minute incubation at 25° C., import reactions were initiated by the addition of […] of translation mix. Aliquots were removed at intervals during the reaction timecourse and import was terminated with either cold buffer, 25 μg/mL trypsin, or a combination of both. If trypsin was added to digest unimported precursor protein, soybean trypsin inhibitor (STI) was subsequently added in excess after 15 minute incubation on ice. After a final recovery of by centrifugation (8,000×g, 5 minutes), mitochondria were disrupted in Laemmli sample buffer. Imports of membrane proteins (AAC, PiC, Tom40, Tim22, and Tim23) included a carbonate extraction step to remove proteins that had not inserted into the membrane (Koehler C M, et al. (1998), Science 279:369-373). Samples from import reaction time points were resolved by SDS polyacrylamide gel electrophoresis (SDSPAGE) and gels were dried prior to exposing to film.

[6] = system: mouse liver mitochondria; assay: Import of radiolabeled precursors into isolated mouse liver mitochondria; assay type: biochemical; parameters: import of AAC: dose or concentration left out as unconfirmed
Protocol: Mitochondria were purified from yeast cells grown in YPEG or selective SEG medium as described in previous studies (Glick B S, Pon L A (1995). Methods Enzymol 260:213-223). Yeast cultures were kept at a constant 25° C. with vigorous shaking during growth. After concentration was measured by BCA assay, mitochondria were stored in 25 mg/ml aliquots at −80° C. Mammalian mitochondria were isolated from 2-4 freshly excised mouse livers by differential centrifugation. Briefly, isolated livers were washed 3× with cold PBS and then suspended in 4-5 mL isolation buffer (70 mM Sucrose, 220 mM mannitol, 2rnM HEPES-KOH, pH 7.4) per gram of tissue. Livers were first chopped into small pieces and then dounced 5× using a teflon dounce. Homogenized material was then centrifuged at 1,000 RPM for […] in a clinical centrifuge and supernatants were transferred to fresh tubes. Centrifugation at 1,000 RPM for 10 min was then repeated and supernatants were transferred to microfuge tubes. Next, supernatant material was spun for 10 min at 800×g (this process was repeated a second time). The supernatants from these steps were subjected to a high-speed (12,000×g for 20 min) spin to pellet heavy membrane fractions. Pellets were washed in isolation buffer and spun again (12,000×g for 20 min). After the final centrifugation step, supernatants were discarded and heavy membrane fraction was resuspended in mammalian import buffer (250 mM sucrose, 5 mM magnesium acetate, 80 mM potassium acetate, 10 mM sodium succinate, 1 mM dithiothreitol, 0.1 mM ADP, 20 mM Hepes-KOH, pH 7.4) as described in Johnston A J, et al. (2002), J Biol Chem 277:42197-42204 and kept on ice. All subsequent imports were performed within 1 hour of isolation of mammalian mitochondria. Mitochondrial concentrations were determined by BCA assay.
Prior to import into purified mitochondria, ^35S-methionine and cysteine labeled proteins were generated with TNT Quick Coupled Transcription/Translation kits (Promega) and plasmids carrying the gene of interest. Transcription of genes was driven by either a T7 or SP6 promoter. […]

[7] = system: WT mitochondria; assay: In vitro import of AAC into wild-type mitochondria; assay type: biochemical, yeast
Protocol: as §1

Erv2, sequence (Q12284 whole entry): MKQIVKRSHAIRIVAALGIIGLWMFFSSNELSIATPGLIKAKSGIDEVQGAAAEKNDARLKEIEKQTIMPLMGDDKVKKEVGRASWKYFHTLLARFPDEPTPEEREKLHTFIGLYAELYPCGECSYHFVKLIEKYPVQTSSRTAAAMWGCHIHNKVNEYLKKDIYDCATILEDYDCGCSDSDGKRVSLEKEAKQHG

## Oc1c(Cl)cc(Cl)cc1/C=N/c1ccc(Nc2ccccc2)cc1 [MitoBloCK-6]
[1]
  IC50: 1.4 µM
[2]
  stability by LC-MS: stable over this pH range
[3]; concentrations higher than 2.5 μM
  toxicity to fish: toxic to the fish
[3]; embryos treated with MitoBloCK-6 or ALR morpholino
  decreased heart rate: 50%

## NC(=S)N/N=C/c1c(O)c(Br)cc2oc3c(c12)CCCC3 [MitoBloCK-1]
[4]
  import of AAC into tim12-1 mutant mitochondria: did not inhibit the import of AAC
[5]; presence of a membrane potential
  protease sensitivity of AAC precursor: sensitive to protease
[5]; tim10-1 tim9S mitochondria
  import of Hsp60 (TIM23 pathway): did not impair import
  import of Mia40 (Mia40/Erv1 pathway): not inhibited
  import of Su9-DHFR (TIM23 pathway): did not impair import
  import of Tafazzin: import was inhibited
  import of Tim9 (Mia40/Erv1 pathway): not inhibited
  import of Tim10 (Mia40/Erv1 pathway): not inhibited
  import of Tim22: impaired
  import of Tim23: but not Tim23 was impaired
  import of Tom40: inhibited the import
  import of cyt b2-DHFR (TIM23 pathway): did not impair import
  import of phosphate carrier (PiC): inhibited the import
[5]; tim10-1 tim9S mitochondria, 1 μM MitoBloCK-1 or greater
  import of AAC: markedly decreased
[6]
  import of AAC: inhibited
  import of Hsp60: not altered
  import of Su9-DHFR: not altered
[7]
  import of AAC into WT mitochondria: did not inhibit import; also recorded: does not inhibit AAC import
